Measurements as given in patent EP2308883A1, “New derivatives of thieno[2,3-b]pyridine and 5,6,7,8 tetrahydrothieno[2,3 b]quinoline in particular useful in the treatment of malaria” (priority 2009, dated 2011).
Where two headings read alike, the source gives them in different places.

Experiments:
Assay type in all cases: biochemical
[1] = molecular target: T1, GSK-3 (Cryptosporidium parvum, UniProt A3FQN0); experiment: Species specificity: recombinant tagged GSK-3 orthologue kinase assay
T1 sequence (A3FQN0 1-433): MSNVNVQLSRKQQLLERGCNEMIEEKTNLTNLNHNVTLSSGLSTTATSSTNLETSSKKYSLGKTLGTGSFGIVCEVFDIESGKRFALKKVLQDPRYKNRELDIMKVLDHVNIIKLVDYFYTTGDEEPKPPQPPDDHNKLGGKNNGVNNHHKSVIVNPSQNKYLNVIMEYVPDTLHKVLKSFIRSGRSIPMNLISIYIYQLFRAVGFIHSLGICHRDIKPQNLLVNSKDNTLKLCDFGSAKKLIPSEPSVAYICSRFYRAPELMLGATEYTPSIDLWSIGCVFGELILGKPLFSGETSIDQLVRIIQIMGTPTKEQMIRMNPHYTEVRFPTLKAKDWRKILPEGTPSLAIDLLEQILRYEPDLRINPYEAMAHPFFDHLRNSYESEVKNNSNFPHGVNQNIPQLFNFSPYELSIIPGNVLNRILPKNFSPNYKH
Procedure: (§2) Following PCR amplification from cDNA libraries or direct synthesis based on databases sequences, the GSK-3 genes were inserted in appropriate expression vectors and recombinant, tagged kinases were expressed, affinity purified and assayed in the presence of up to 10-100µM of each compound of formula (I) according to the present invention and a selection of the PfGSK-3 inhibitors.

[2] = molecular target: T2, PfGSK-3 (Plasmodium falciparum, UniProt O77344); experiment: Kinase assay with recombinant (His)6-tagged PfGSK3, GS-1 peptide and [γ-33P] ATP; conditions: for anti-PfGSK-3 IC50 values: result in words
T2 construct: His6; made in house; host or cells: Escherichia coli TOP 10
T2 sequence (O77344 1-440): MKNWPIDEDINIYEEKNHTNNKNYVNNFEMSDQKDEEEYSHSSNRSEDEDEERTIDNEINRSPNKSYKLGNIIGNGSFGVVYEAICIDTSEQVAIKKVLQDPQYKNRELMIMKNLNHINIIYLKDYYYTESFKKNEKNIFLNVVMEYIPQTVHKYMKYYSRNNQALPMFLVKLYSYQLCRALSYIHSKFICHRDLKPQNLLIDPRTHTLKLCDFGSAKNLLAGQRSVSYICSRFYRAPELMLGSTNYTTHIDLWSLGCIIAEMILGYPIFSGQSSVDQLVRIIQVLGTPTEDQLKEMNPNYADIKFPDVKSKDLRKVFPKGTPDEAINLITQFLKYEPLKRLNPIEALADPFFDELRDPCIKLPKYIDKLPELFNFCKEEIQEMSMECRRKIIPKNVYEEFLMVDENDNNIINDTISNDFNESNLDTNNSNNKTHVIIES
Procedure: Escherichia coli strain (TOP 10) containing a plasmid encoding PfGSK3 with six histidines (pBAD-Thio-TOPO, Invitrogen) were cultured into 500 ml of LB medium containing 100 µg/ml ampicillin, at 37°C, under shaking (250 rpm) until OD600 of 0.5 was reached. Expression was induced with 0.5 ml of 20% arabinose (0.02% final concentration). The culture was grown at 37°C with shaking for 4 hours. Cells were harvested by centrifugation at 9000 rpm for 10 min. The bacterial pellet was stored frozen at -80°C until further processing. For proteins extraction, pellet was resuspended in 10 ml of lysis buffer (50 mM NaH2PO4 pH 8.0, 300 mM NaCl, 10 mM imidazole) with the addition of protease inhibitors (complete EDTA-free, Roche) and lysozyme ([…] final). Cells were disrupted by sonication and the cell lysate was centrifuged at 24000 rpm for 30 min at 4°C. The recombinant PfGSK3 protein was purified by Immobilized Metal Affinity Chromatography according to a batch procedure on 1 ml of Nickel affinity resin (Ni-NTA agarose beads, Qiagen). Beads were washed four times with 10 ml of wash buffer (50 mM NaH2PO4 pH 8.0, 300 mM NaCl, 30 mM imidazole). Protein was eluted with one volume of elution buffer (50 mM NaH2PO4 pH 8.0, 300 mM NaCl, 250 mM imidazole, 10% glycerol).
(§1) Both porcine GSK3 and PfGSK3 were assayed with 40 µM GS-1 peptide, a specific GSK-3 substrate, ([…]pEDEEE, synthesized by the Peptide Synthesis Unit, Institute of Biomolecular Sciences, University of Southampton, U.K.), in buffer A (25 mM Tris-HCl pH 7.5, 10 mM MgC12, 1 mM EGTA, 1 mM DTT, 50 µg heparin/ml, 0.5 mg BSA/ml) in the presence of 15 µM [γ-^33P] ATP (3000 Ci/mmol; 1 mCi/ml) in a final volume of 30 µl. After 30 min. incubation at 30°C, 25 µl aliquots of supernatant were spotted onto 2.5 x 3 cm pieces of Whatman P81 phosphocellulose paper, and, 20 sec. later, the filters were washed five times (for at least 5 min. each time) in 1 % phosphoric acid. The wet filters were counted in the presence of 1 ml ACS (Amersham) scintillation fluid. The kinase activity was expressed in pmoles phosphate incorporated in GS-1 or in percentage of the maximal activity.

[3] = molecular target: Mammalian GSK-3 (GSK-3α/β); experiment: Kinase assay with native porcine GSK3 purified from porcine brain, GS-1 peptide and [γ-33P] ATP; conditions: for anti-mammalian GSK-3 IC50 values: result in words
Procedure: Porcine GSK3 (GSK-3α/β) was purified from porcine brain by affinity chromatography on immobilized axin according to the protocol described in Primot et al (Protein Expression and Purification 20, 394-404, 2000).
as §1

[4] = molecular target: T3, GSK-3 (Plasmodium knowlesi, UniProt A0A679KU36); experiment: Species specificity: recombinant tagged GSK-3 orthologue kinase assay
T3 sequence (A0A679KU36 1-473): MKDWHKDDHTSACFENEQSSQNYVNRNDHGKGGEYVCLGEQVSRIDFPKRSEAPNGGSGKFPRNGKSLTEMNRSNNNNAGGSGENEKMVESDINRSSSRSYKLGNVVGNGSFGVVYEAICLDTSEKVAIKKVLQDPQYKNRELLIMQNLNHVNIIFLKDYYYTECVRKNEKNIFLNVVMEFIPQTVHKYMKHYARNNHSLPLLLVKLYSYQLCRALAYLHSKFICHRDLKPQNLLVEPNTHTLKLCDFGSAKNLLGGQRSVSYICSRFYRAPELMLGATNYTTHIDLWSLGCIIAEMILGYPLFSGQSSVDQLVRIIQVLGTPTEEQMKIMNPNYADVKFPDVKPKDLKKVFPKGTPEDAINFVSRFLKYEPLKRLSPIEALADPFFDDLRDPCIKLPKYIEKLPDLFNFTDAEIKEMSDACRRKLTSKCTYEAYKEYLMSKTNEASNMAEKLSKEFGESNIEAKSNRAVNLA
Procedure: as §2

[5] = read-out: IC50 Plasmodium knowlesi; calculated from dose-response curves
[6] = calculated from dose-response curves, -(100) taken as no inhibition at 100, read-out: IC50 Cryptosporidium parvum
[7] = calculated from dose-response curves; read-out: IC50 Plasmodium knowlesi
[8] = unit only in the introducing sentence b99, not in the table, read-out: IC50 PfGSK-3
[9] = -(10) taken as no inhibition at 10, read-out: IC50 Mammalian GSK-3

| SMILES | IC50 [1] [µM] | anti-PfGSK-3 IC50 values [2] | anti-mammalian GSK-3 IC50 values [3] | IC50 [4, 5] [µM] | IC50 [1, 6] [µM] | IC50 [4, 7] [µM] | IC50 [2, 8] [µM] | IC50 [3, 9] [µM] | IC50 ([2]; read-out: PfGSK-3 IC50) [µM] | IC50 ([3]; read-out: mammalian GSK-3α/β IC50) [µM] |
| --- | --- | --- | --- | --- | --- | --- | --- | --- | --- | --- |
| COc1ccccc1-c1c(C#N)c(N)nc2sc(C(=O)c3ccccc3)c(N)c12 [Compound 2, 3,6-diamino-2-benzoyl-4-(2-methoxyphenyl)thieno[2,3-b]pyridine-5-carbonitrile] | > 100 | particularly good | do not demonstrate good | 95 |  |  |  |  |  |  |
| N#Cc1c(N)nc2sc(C(=O)c3cccc(Cl)c3)c(N)c2c1-c1ccccc1I [Compound 14, 3,6-diamino-2-(3-chlorobenzoyl)-4-(2-iodophenyl)thieno[2,3-b]pyridine-5-carbonitrile] |  | particularly good | do not demonstrate good |  | > 100 | 2.75 |  |  |  |  |
| N#Cc1cccc(C(=O)c2sc3nc(N)c(C#N)c(-c4ccccc4Cl)c3c2N)c1 [Compound 26, 3,6-diamino-4-(2-chlorophenyl)-2-(3-cyanobenzoyl)thieno[2,3-b]pyridine-5-carbonitrile] |  | particularly good | do not demonstrate good |  | > 100 | 6.5 | 0.5 | > 10 |  |  |
| N#Cc1c(N)nc2sc(C(=O)c3cccc(Cl)c3)c(N)c2c1-c1ccccc1Br [Compound 20, 3,6-diamino-4-(2-bromophenyl)-2-(3-chlorobenzoyl)thieno[2,3-b]pyridine-5-carbonitrile] |  | particularly good | do not demonstrate good |  | > 100 | 1.45 |  |  |  |  |
| N#Cc1c(N)nc2sc(C(=O)c3cccc(Cl)c3)c(N)c2c1-c1ccccc1Cl [Compound 22, 3,6-diamino-2-(3-chlorobenzoyl)-4-(2-chlorophenyl)thieno[2,3-b]pyridine-5-carbonitrile] | > 100 | particularly good | do not demonstrate good | 2.45 |  |  | 0.06 | > 10 | 0.47 | > 10 |
